Assay results reported in EP4793641A1, “NOVEL METHOD FOR ANALYZING BIOMOLECULAR INTERACTIONS” (Kyoto University, priority 2023, dated 2025).
Non-standard residues stand in square brackets, D forms with d. Residues, ends and D or L forms follow the SMILES beside them. Primed or numbered codes have the meaning given here. *: point of attachment. Me′ = methyl group capping the C-terminus; pT = C[C@@H](OP(=O)(O)O)[C@H](N)C(=O)O; Mob = COc1ccc(C*)cc1; Bn = c1ccc(C*)cc1

Target: T1, interactions between Talin 1 (TLN1) and integrin subunit beta (ITGB) (Homo sapiens, UniProt Q9Y490)
T1 construct: LgBit or SmBit (N-terminal of the HaloTag); made in house
Test: Flip-flop detection mechanism on DNA origami (LgBit/SmBit luminescence), inhibitor screening
Format: biochemical
Conditions: inhibition of binding between TLN1 and ITBG; for IC50: read-out: Inhibitory activity
Description: Two types of systems, i.e., flip-flop detection mechanism and switch detection mechanism, were constructed by using HaloTag, LgBit, SmBit, TLN1, and ITGB. Each of TLN1 (Uniprot ID: Q9Y490) and ITGB1 (Uniprot ID: P05556) was cloned from the registered genetic information. HaloTAg has three chemically modifiable locations at a ligand recognition site, C-terminus, and N-terminus. In this Example, a single-stranded DNA for attaching to DNA origami was connected to a ligand recognition site of HaloTag, a subunit of an interaction complex was connected to the C-terminus, and LgBit or SmBit was connected to the N-terminus.
The outline of the system is disclosed in Figure 23. When TLN1 and ITBG are in a bound state in this system, LgBit and SmBit are at spatially separated positions from each other, with a HaloTag interposed therebetween. In this regard, if an inhibitor is added, complex formation of TLN1 and ITBG is inhibited. As a result, a LgBit-SmBit complex can be formed, and a luminescence reaction progresses.
As a candidate drug for inhibiting the binding between TLN1 and ITBG, peptide inhibitors consisting of 13 amino acids prepared by modifying amino acids in an intracellular region of ITGB3 have been designed (Shen B. et al., A directional switch of integrin signaling and a new antithrombotic strategy. Nature 503, 131-135 (2013)). IC50 values for the peptides shown in the following table were calculated by using the flip-flop detection mechanism described in Example 11 for optimizing the sequence. In this manner, the effect of a large number of compounds on the interaction with a target protein can be readily analyzed in the system of the present disclosed.

| Compound | Inhibitory activity | IC50 |
| --- | --- | --- |
| CSCC[C@H](NC(=O)[C@H](CCCCN)NC(=O)[C@H](CCC(=O)O)NC(=O)[C@H](CCCCN)NC(=O)[C@H](CCC(=O)O)NC(=O)[C@H](Cc1ccccc1)NC(=O)[C@@H](N)CCCCN)C(=O)N[C@@H](CC(N)=O)C(=O)N[C@@H](CS)C(=O)N[C@@H](CCCCN)C(=O)N[C@@H](Cc1c[nH]c2ccccc12)C(=O)N[C@@H](CCSC)C(=O)N[C@H](C(=O)O)[C@@H](C)OP(=O)(O)O [FIYM13] (H-KFEKEKMNCKWM[pT]-OH) | no inhibition |  |
| CSCC[C@H](NC(=O)[C@H](CCCCN)NC(=O)[C@H](CCC(=O)O)NC(=O)[C@H](CCCCN)NC(=O)[C@H](CCC(=O)O)NC(=O)[C@H](Cc1ccccc1)NC(=O)[C@@H](N)CCCCN)C(=O)N[C@@H](CC(N)=O)C(=O)N[C@H](C(=O)N[C@@H](CCCCN)C(=O)N[C@@H](Cc1c[nH]c2ccccc12)C(=O)N[C@@H](CCSC)C(=O)N[C@H](C(=O)O)[C@@H](C)O)[C@@H](C)O [FIYM34] (H-KFEKEKMNTKWMT-OH) | no inhibition |  |
| CSCC[C@H](NC(=O)[C@H](Cc1c[nH]c2ccccc12)NC(=O)[C@H](CCCCN)NC(=O)[C@H](CS)NC(=O)[C@H](CC(N)=O)NC(=O)[C@H](CCSC)NC(=O)[C@H](CCCCN)NC(=O)[C@H](CCC(=O)O)NC(=O)[C@H](CCCCN)NC(=O)[C@H](CCC(=O)O)NC(=O)[C@H](Cc1ccccc1)NC(=O)[C@@H](N)CCCCN)C(=O)O [FIYM22] (H-KFEKEKMNCKWM-OH) |  | 472 µM |
| COc1ccc(CSC[C@H](NC(=O)[C@H](CC(N)=O)NC(=O)[C@H](CCSC)NC(=O)[C@H](CCCCN)NC(=O)[C@H](CCC(=O)O)NC(=O)[C@H](CCCCN)NC(=O)[C@H](CCC(=O)O)NC(=O)[C@H](Cc2ccccc2)NC(=O)[C@@H](N)CCCCN)C(=O)N[C@@H](CCCCN)C(=O)N[C@@H](Cc2c[nH]c3ccccc23)C(=O)N[C@@H](CCSC)C(=O)N[C@H](C(=O)O)[C@@H](C)O)cc1 [FIYM42] (H-KFEKEKMNC(Mob)KWMT-OH) | no inhibition |  |
| CSCC[C@H](NC(=O)[C@H](CCCCN)NC(=O)[C@H](CCC(=O)O)NC(=O)[C@H](CCCCN)NC(=O)[C@H](CCC(=O)O)NC(=O)[C@H](Cc1ccccc1)NC(=O)[C@@H](N)CCCCN)C(=O)N[C@@H](CC(N)=O)C(=O)N[C@@H](CSCc1ccccc1)C(=O)N[C@@H](CCCCN)C(=O)N[C@@H](Cc1c[nH]c2ccccc12)C(=O)N[C@@H](CCSC)C(=O)N[C@H](C(=O)O)[C@@H](C)O [FIYM43] (H-KFEKEKMNC(Bn)KWMT-OH) | no inhibition |  |
| CSCC[C@H](NC(=O)[C@H](CCCCN)NC(=O)[C@H](CCC(=O)O)NC(=O)[C@H](CCCCN)NC(=O)[C@H](CCC(=O)O)NC(=O)[C@H](Cc1ccccc1)NC(=O)[C@@H](N)CCCCN)C(=O)N[C@@H](CC(N)=O)C(=O)N[C@@H](C)C(=O)N[C@@H](CCCCN)C(=O)N[C@@H](Cc1c[nH]c2ccccc12)C(=O)N[C@@H](CC(=O)O)C(=O)N[C@H](C(=O)O)[C@@H](C)O [FIYM1] (H-KFEKEKMNAKWDT-OH) |  | 709 µM |
| Ace-KFEKEKMNCKWMT-Me (Ace-KFEKEKMNCKWMT-{Me′}) [FIYM15] |  | 41.2 µM |
| CSCC[C@H](NC(=O)[C@H](CCCCN)NC(=O)[C@H](CCC(=O)O)NC(=O)[C@H](CCCCN)NC(=O)[C@H](CCC(=O)O)NC(=O)[C@H](Cc1ccccc1)NC(=O)[C@H](CCCCN)NC(=O)[C@@H]1CCCN1)C(=O)N[C@@H](CC(N)=O)C(=O)N[C@@H](CS)C(=O)N[C@@H](CCCCN)C(=O)N[C@@H](Cc1c[nH]c2ccccc12)C(=O)N[C@@H](CCSC)C(=O)N[C@H](C(=O)O)[C@@H](C)O [FIYM54] (H-PKFEKEKMNCKWMT-OH) | no inhibition |  |
